In EPA's ToxValDB 9.5 (doi:10.2903/j.efsa.2009.181r):
Converted amounts (≈) assume the structure as drawn.

Tests used:
Anas platyrhynchos = settings: short-term; oral; feed; mortality
Apis mellifera = settings: acute; dermal; mortality
Avena sativa = settings: chronic/long-term; body weight
Bibionidae = settings: chronic/long-term; duration: 28 days; seedling emergence
Colinus virginianus = settings: mortality
Daphnia magna = settings: chronic/long-term; duration: 21 days; reproduction
Pardosa sp. = settings: acute; duration: 7 days; mortality

## CC(C)N(C(=O)SCC(Cl)=C(Cl)Cl)C(C)C [Tri-allate]
Anas platyrhynchos
  LC50: > 1210 mg/kg-day
Apis mellifera
  LD50: > 100 µg/piece
Avena sativa
  NOEC: 11 g/ha
Bibionidae
  NOEC: 0.583 mg/L
Colinus virginianus; acute, oral
  LD50: 1560 mg/kg-day
Colinus virginianus; reproduction developmental
  NOEC: 54 mg/kg-day
Daphnia magna
  NOEC: 0.013 mg/L
Oncorhynchus mykiss; acute, duration: 96 hours, mortality
  LC50: 0.95 mg/L (≈ 3.12 µM)
Oncorhynchus mykiss; chronic/long-term, duration: 88 days, growth
  NOEC: 0.038 mg/L
Pardosa sp.
  LEL: 2280 g/ha
Rattus norvegicus; acute, oral, clinical signs
  NOAEL: 60 mg/kg-day
Rattus norvegicus; acute, oral, mortality
  LD50: 1100 mg/kg
Rattus norvegicus; chronic, M, mortality
  NOEL: 9 mg/kg-day
Rattus norvegicus; chronic, duration: 2 years, oral, diet, mortality
  NOAEL: 2.5 mg/kg-day
Rattus norvegicus; subchronic, duration: 90 days, histopathology: nonneoplastic
  NOAEL: 6.4 mg/kg-day
Tagia sp.; acute, duration: 14 days, mortality
  LC50: 549 mg/kg
Tagia sp.; chronic/long-term, duration: 56 days, reproduction
  NOEC: 27.2 mg/kg
